Measured values as given in the supplement of paper PMC10307832.

Tests used:
Assay in all cases: relative viability (nuclei count vs DMSO), 5 days (fraction); higher = more cells survive
Selisistat + Phenformin = compound: C1CC(C2=C(C1)C3=C(N2)C=CC(=C3)Cl)C(=O)N [Selisistat] + N=C(N)NC(=N)NCCc1ccccc1 [Phenformin] (partner 250 µM)
Method in brief: (§1)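 A single step with final 0.05% Triton X-100, 1% formaldehyde and 1 ug/ml Hoechst fixed the cells and stained nuclei 5 days after treatment. Lung cancer cell lines in 1536-well plates had been treated by pin tool the day after seeding with one drug alone or a fixed anchor-drug dose plus five library-drug doses (not always all listed) in √10 steps, and nuclei were counted on 4× images. Relative viability is the ratio of nuclei in treated wells to nuclei in vehicle wells, taken as the median of duplicate plates.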

Serdemetan + Trametinib = compound: c1ccc2c(CCNc3ccc(Nc4ccncc4)cc3)c[nH]c2c1 [Serdemetan] + CC(=O)Nc1cccc(-n2c(=O)n(C3CC3)c(=O)c3c(Nc4ccc(I)cc4F)n(C)c(=O)c(C)c32)c1 [Trametinib] (partner 0.02 µM)
Method in brief: as §1

Serdemetan + Pictilisib = compound: c1ccc2c(CCNc3ccc(Nc4ccncc4)cc3)c[nH]c2c1 [Serdemetan] + CS(=O)(=O)N1CCN(Cc2cc3nc(-c4cccc5[nH]ncc45)nc(N4CCOCC4)c3s2)CC1 [Pictilisib] (partner 1 µM)
Method in brief: as §1

Serdemetan + Vorinostat = compound: c1ccc2c(CCNc3ccc(Nc4ccncc4)cc3)c[nH]c2c1 [Serdemetan] + O=C(CCCCCCC(=O)Nc1ccccc1)NO [Vorinostat] (partner 1 µM)
Method in brief: as §1

Cell Line	relative viability (Selisistat + Phenformin; first compound 0.4 µM)	relative viability (Selisistat + Phenformin; first compound 1.265 µM)	relative viability (Selisistat + Phenformin; first compound 4 µM)	relative viability (Selisistat + Phenformin; first compound 12.65 µM)	relative viability (Selisistat + Phenformin; first compound 40 µM)	relative viability (Serdemetan + Trametinib; first compound 0.04 µM)	relative viability (Serdemetan + Trametinib; first compound 0.1265 µM)	relative viability (Serdemetan + Trametinib; first compound 0.4 µM)	relative viability (Serdemetan + Trametinib; first compound 1.265 µM)	relative viability (Serdemetan + Trametinib; first compound 4 µM)	relative viability (Serdemetan + Pictilisib; first compound 0.04 µM)	relative viability (Serdemetan + Pictilisib; first compound 0.1265 µM)	relative viability (Serdemetan + Pictilisib; first compound 0.4 µM)	relative viability (Serdemetan + Pictilisib; first compound 1.265 µM)	relative viability (Serdemetan + Pictilisib; first compound 4 µM)	relative viability (Serdemetan + Vorinostat; first compound 0.04 µM)	relative viability (Serdemetan + Vorinostat; first compound 0.1265 µM)	relative viability (Serdemetan + Vorinostat; first compound 0.4 µM)	relative viability (Serdemetan + Vorinostat; first compound 1.265 µM)	relative viability (Serdemetan + Vorinostat; first compound 4 µM)
201T	0.449	0.436	0.432	0.41	0.481	0.769	0.687	0.736	0.653	0.631	0.707	0.712	0.67	0.655	0.664	0.974	0.996	0.883	0.879	0.715
A549	0.192	0.17		0.123	0.145						0.537	0.558	0.517	0.264	0.262					
A-427	0.261	0.383	0.266	0.255	0.327	0.699	0.732	0.877	0.698	0.506	0.787	0.704	0.607	0.49	0.599	0.854	0.849	0.867	0.779	0.709
ABC-1	0.221	0.213	0.265	0.265	0.263						0.674	0.673	0.616	0.367	0.294	0.985	0.949	0.989	0.832	0.787
BEN	0.246	0.286	0.256	0.239	0.275	0.944	0.853	1.06	1.03	0.794	0.57	0.529	0.565	0.535	0.496	0.603	0.54	0.688	0.615	0.514
CAL-12T	0.586	0.565	0.406	0.516	0.537	0.447	0.335	0.334	0.365	0.308		0.521		0.369	0.368	0.857	0.82	0.748	0.922	0.627
COR-L23	0.443	0.43	0.458	0.424	0.441	0.616	0.606	0.617	0.502	0.449	0.665	0.767	0.785	0.598	0.752	0.441	0.434	0.392	0.412	0.362
COR-L 105	0.479	0.439		0.371	0.421	0.435	0.482	0.366	0.487	0.491	0.366	0.486	0.322	0.427	0.37	0.863	0.96	0.758	0.861	0.645
Calu-6											0.912	0.888	0.888	0.647	0.621					
ChaGo-K-1	0.488	0.458	0.439	0.422	0.485	0.875	0.805	0.602	0.266	0.293		0.832	0.649	0.421	0.659	0.741	0.697	0.77	0.329	0.331
EBC-1											0.35	0.449	0.451	0.411	0.368					
EKVX	0.221	0.243	0.222	0.23	0.249	0.45	0.396			0.268	0.532	0.414	0.352	0.441	0.425	0.798	0.719		0.462	0.546
IA-LM											0.4	0.499	0.325	0.314	0.389	1.05	0.964	0.9	0.81	0.419
NCI-H522	0.695	0.61	0.469	0.61	0.687	0.678	0.698	0.87	0.702	0.612						0.982	0.955	0.923	0.831	0.799
NCI-H1299											0.858	0.864	0.679	0.61	0.384					
NCI-H1563	0.662	0.658	0.63	0.638	0.585						0.613	0.665	0.664	0.549	0.628					
NCI-H1648							0.534	0.393	0.317	0.296							0.552	0.329	0.398	0.252
NCI-H1703											0.213	0.278	0.3	0.271	0.232					
NCI-H1792	0.301	0.357		0.324	0.224	0.401	0.458	0.304	0.248	0.142	0.278	0.274	0.283	0.242	0.145					
NCI-H2342	0.562	0.54	0.504	0.601	0.61	0.818	0.84	1.12	0.789	0.669						0.705	0.731	1.07	0.908	0.478
SW 900	0.632	0.621	0.468	0.484	0.641	0.636	0.63	0.874	0.8	0.519						0.485	0.569	0.53	0.393	0.455
